# Experimental data as given in PMC8961646, “Fibroblast Activation Protein Specific Optical Imaging in Non-Small Cell Lung Cancer” (Frontiers in Oncology, 2022).
# Non-standard residues stand in square brackets, D forms with d. Residues, ends and D or L forms follow the SMILES beside them. *: point of attachment. 5FAM = O=C1OC2(c3ccc(O)cc3Oc3cc(O)ccc32)c2ccc(C(=O)*)cc21; MethylRed = CN(C)c1ccc(/N=N/c2ccccc2C(=O)*)cc1; AEEA = NCCOCCOCC(=O)O; βAla = NCCC(=O)O
# Experiments:
# rhFAP = molecular target: T1, rhFAP (Homo sapiens, UniProt Q12884); assay: Probe cleavage by recombinant human FAP (fluorescence plate assay, MALDI confirmation); type: biochemical; conditions: probe 5 µM; for Cleavage by rhFAP (fluorescence signal): rhFAP 0.1 µg/ml, TRIS buffer (pH 7.5), 20 µl, read 480/530 nm, n=3 run in triplicate; for FAP specificity (over PREP): rhFAP compared with rhPREP, each 0.1 µg/ml
# T1 construct: purchased R&D Systems
# T1 sequence (Q12884 26-760 limits assumed): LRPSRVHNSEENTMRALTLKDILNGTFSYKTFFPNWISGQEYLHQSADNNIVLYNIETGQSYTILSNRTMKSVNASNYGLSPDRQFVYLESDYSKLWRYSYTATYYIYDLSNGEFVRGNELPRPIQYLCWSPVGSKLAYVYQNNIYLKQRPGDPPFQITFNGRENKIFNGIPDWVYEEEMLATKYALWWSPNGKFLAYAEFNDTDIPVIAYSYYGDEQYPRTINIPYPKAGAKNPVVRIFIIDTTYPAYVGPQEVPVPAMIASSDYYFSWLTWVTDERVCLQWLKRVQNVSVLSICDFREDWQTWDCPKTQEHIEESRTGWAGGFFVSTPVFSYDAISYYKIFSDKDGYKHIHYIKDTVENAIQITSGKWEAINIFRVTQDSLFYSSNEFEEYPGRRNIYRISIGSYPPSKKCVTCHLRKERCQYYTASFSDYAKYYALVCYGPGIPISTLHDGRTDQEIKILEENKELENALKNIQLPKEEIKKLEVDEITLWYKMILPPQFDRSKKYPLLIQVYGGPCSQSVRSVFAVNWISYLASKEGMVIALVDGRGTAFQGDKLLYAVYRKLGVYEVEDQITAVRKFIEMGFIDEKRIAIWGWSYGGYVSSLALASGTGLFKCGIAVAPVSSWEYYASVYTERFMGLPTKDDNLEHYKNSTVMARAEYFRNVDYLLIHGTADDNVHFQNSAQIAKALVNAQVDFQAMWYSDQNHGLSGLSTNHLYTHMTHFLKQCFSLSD
# rhPREP = molecular target: T2, rhPREP (Homo sapiens, UniProt P48147); assay: Probe cleavage by recombinant human PREP (fluorescence plate assay, MALDI confirmation); type: biochemical; conditions: probe 5 µM, rhPREP 0.1 µg/ml, TRIS buffer pH 7.5, read 480/530 nm, n=3 run in triplicate
# T2 construct: purchased R&D Systems
# T2 sequence (P48147 1-710): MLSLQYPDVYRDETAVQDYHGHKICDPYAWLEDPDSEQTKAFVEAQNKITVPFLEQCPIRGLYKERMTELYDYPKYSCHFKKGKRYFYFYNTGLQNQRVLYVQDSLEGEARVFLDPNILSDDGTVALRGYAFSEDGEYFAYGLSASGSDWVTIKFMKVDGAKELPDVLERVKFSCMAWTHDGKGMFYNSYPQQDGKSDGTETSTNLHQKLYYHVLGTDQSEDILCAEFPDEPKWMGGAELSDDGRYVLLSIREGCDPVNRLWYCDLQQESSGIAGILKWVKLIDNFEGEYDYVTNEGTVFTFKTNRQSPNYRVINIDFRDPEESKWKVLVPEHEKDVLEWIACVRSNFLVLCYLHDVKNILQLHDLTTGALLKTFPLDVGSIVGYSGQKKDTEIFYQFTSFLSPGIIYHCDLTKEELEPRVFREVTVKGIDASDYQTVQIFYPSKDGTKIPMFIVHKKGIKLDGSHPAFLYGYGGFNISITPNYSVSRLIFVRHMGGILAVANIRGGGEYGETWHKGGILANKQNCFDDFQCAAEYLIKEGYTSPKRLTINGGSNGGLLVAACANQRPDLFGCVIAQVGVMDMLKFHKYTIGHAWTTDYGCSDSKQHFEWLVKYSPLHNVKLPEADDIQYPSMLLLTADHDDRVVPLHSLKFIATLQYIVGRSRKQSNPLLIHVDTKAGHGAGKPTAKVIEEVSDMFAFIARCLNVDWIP
# rhDPPIV = rhDPPIV (Homo sapiens, UniProt P27487); assay: Probe cleavage by recombinant human DPP-IV (exopeptidase activity); conditions: probe 5 µM, rhDPPIV 0.1 µg/ml, TRIS buffer pH 7.5, read 480/530 nm, n=3 run in triplicate
# Description: Recombinant human enzymes [rhFAP (R&D Systems), rhPREP (R&D Systems) and rhDPPIV (Biolegend)] were stored in stocks at -70°C and diluted as required to be used at final concentration of 0.1 µg/ml. Enzymes were aliquoted upon receipt from the supplier and new stocks made from a fresh aliquot as required.
# Assays were undertaken in triplicate in blackened 384 well plates on ice prior to spectral reads. […] All wells contained a final volume of 20 µl to include buffers, inhibitors (if used), substrates and recombinant human enzymes (at a concentration of 0.1 µg/ml unless otherwise stated). […] Plates were sealed with an optical plate sealer (Biolegend) and were read in a preheated spectrophotometer (Synergy Biotek) in monochromator-based mode at 380/460 nm for control substrates and 480/530 nm for synthesised FAP probes.
# [1] = system: NSCLC patient tissue samples; assay: Fluorescence intensity and lifetime imaging (FLIM) of ex vivo NSCLC tissue; parameters: species or system human; conditions: Talabostat at a dilution of 1:1000 with FAP3 5 µM, N=5
# Description: For imaging solutions, varying concentrations of rhFAP were prepared in blackened eppendorfs and FAP3 to a final concentration of 5µM added and imaged as below. For biological specimens, NSCLC patient tissue samples from surgical resection were used fresh or snap frozen and stored at -80°C until required. Small fragments (approx. 4mm^3) incubated at 37°C in a 96 well plate in phenyl-red free DMEM (Gibco) containing 10% FCS, 1% Penicillin-streptomycin and 1% L-Glutamine. For the tissue fragments to be used as inhibitor controls, we added Talabostat at a dilution of 1:1000. Samples were then imaged using a clinically approved fluorescence lifetime imaging system used in conjunction with an imaging fibre ([30]) providing a 400 x 400 µm field of view. The imaging system incorporates a pulsed supercontinuum laser source, in this case tuned for excitation at 488 nm, with an achromatic confocal laser scanning system and a time-resolved spectrometer. This spectrometer contains a 512 channel single photon avalanche diode (SPAD) sensor ([31]) allowing for the rapid collection of time resolved spectral fluorescence lifetime data. Fluorescence intensity and lifetime images were collected using an image resolution of 160 x 160 pixels over a 498 – 570 nm spectral range with an exposure time of 13 µs per pixel. This led to an imaging rate of ~3 frames per second.
# For each condition, the tumour samples were imaged using a fibre placed at the surface of the tissue (baseline), and then again at 10-minute intervals following the additions of equimolar concentrations of probe +/- Inhibitor. For imaging solutions, the fibre was held within the solution and imaged every 5 minutes. Each condition and time-point data for both fluorescence intensity and lifetime were collected. Imaging sequences had non-relevant frames removed, and the entire field of view was analysed. Analysis was undertaken using a bespoke software suite utilising the rapid lifetime determination (RLD) method ([32]). […]
# DPP-IV = conditions: cited from earlier work
# Description: As starting point for our study, a peptide sequence previously published within a FAP optical reporter was synthesised (GPGPNQ), which had been determined to be FAP specific over DPP-IV but had not been assessed against PREP ([24]). We synthesised the reported peptide sequence but for FRET pairing we utilised a Carboxyfluorescein (FAM) fluorophore with a Methyl Red quencher ( Figure 1A ) as an alternative to Cy5.5/QSY21. The peptide sequence was synthesized by Fmoc solid-phase peptide synthesis on ChemMatrix resin using Oxyma/DIC as the coupling combination. FAM was incorporated at the N-termi ...
# FAP expressing tumours = conditions: murine tumour models, NIR fluorescence; cited from earlier work
# Description: Prior studies investigating FAP as an optical probe target focussed on near infrared (NIR) fluorophores where signal can be detected with minimal intrinsic tissue autofluorescence. Li et al. designed an activatable NIR fluorescent probe (ANPFAP) for FAP which was composed of the NIR dye Cy5.5 and the quencher dye QSY21 which were linked by a peptide sequence which is cleaved specifically by FAP (KGPGPNQC) ([24]). […] Although not developed as an imaging optical ...
# rhDPPIV, sequence (P27487 29-766 limits assumed): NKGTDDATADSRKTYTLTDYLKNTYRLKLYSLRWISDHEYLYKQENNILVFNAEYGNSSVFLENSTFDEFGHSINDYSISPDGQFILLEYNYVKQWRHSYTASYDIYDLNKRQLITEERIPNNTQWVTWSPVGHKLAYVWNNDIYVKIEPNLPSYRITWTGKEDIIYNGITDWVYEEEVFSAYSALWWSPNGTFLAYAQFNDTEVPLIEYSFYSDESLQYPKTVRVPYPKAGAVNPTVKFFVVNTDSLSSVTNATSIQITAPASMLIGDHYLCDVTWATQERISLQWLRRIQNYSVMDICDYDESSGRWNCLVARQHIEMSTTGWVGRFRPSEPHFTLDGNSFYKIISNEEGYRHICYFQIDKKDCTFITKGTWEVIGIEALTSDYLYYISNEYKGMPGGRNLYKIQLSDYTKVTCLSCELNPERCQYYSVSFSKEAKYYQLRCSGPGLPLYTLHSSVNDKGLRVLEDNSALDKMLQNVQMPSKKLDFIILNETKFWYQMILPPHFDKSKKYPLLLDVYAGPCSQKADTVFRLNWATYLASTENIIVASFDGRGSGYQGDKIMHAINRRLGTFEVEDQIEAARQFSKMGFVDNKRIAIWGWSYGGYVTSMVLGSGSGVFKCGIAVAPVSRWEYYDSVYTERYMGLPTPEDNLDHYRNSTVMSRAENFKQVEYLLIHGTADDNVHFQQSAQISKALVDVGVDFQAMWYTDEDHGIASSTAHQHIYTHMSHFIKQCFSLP
Cleavage by rhFAP (fluorescence signal) (rhFAP),Cleavage by rhPREP (fluorescence signal) (rhPREP),FAP specificity (over PREP) (rhFAP),Molecule,also measured
FAP activity was absent,demonstrated cleavage by PREP,,C[C@H](NC(=O)[C@@H](N)CCCCNC(=O)c1ccccc1/N=N/c1ccc(N(C)C)cc1)C(=O)N1CCC[C@H]1C(=O)N[C@@H](CO)C(=O)N[C@@H](CCCCNC(=O)c1ccc2c(c1)C(=O)OC21c2ccc(O)cc2Oc2cc(O)ccc21)C(=O)NCCOCCOCC(=O)N[C@H](CCCCN)C(=O)NCCOCCOCC(=O)N[C@H](CCCCN)C(=O)NCCOCCOCC(=O)N[C@H](CCCCN)C(N)=O [FAP2AAla] (H-K(MethylRed)APSK(5FAM)[AEEA][dK][AEEA][dK][AEEA][dK]-NH2),
reduced signal,,FAP specificity over PREP,C[C@@H](NC(=O)[C@@H](N)CCCCNC(=O)c1ccccc1/N=N/c1ccc(N(C)C)cc1)C(=O)N1CCC[C@H]1C(=O)N[C@@H](CO)C(=O)N[C@@H](CCCCNC(=O)c1ccc2c(c1)C(=O)OC21c2ccc(O)cc2Oc2cc(O)ccc21)C(=O)NCCOCCOCC(=O)N[C@H](CCCCN)C(=O)NCCOCCOCC(=O)N[C@H](CCCCN)C(=O)NCCOCCOCC(=O)N[C@H](CCCCN)C(N)=O [FAP2BD-Ala] (H-K(MethylRed)[dA]PSK(5FAM)[AEEA][dK][AEEA][dK][AEEA][dK]-NH2),
highest rate of cleavage,without PREP cleavage,FAP specificity over PREP,CN(C)c1ccc(/N=N/c2ccccc2C(=O)NCCCC[C@H](N)C(=O)N[C@H](CO)C(=O)N2CCC[C@H]2C(=O)N[C@@H](CO)C(=O)N[C@@H](CCCCNC(=O)c2ccc3c(c2)C(=O)OC32c3ccc(O)cc3Oc3cc(O)ccc32)C(=O)NCCOCCOCC(=O)N[C@H](CCCCN)C(=O)NCCOCCOCC(=O)N[C@H](CCCCN)C(=O)NCCOCCOCC(=O)N[C@H](CCCCN)C(N)=O)cc1 [FAP2CD-Ser] (H-K(MethylRed)[dS]PSK(5FAM)[AEEA][dK][AEEA][dK][AEEA][dK]-NH2),Cleavage by rhFAP (fluorescence signal) (rhFAP; listed as D-Ser): reduced signal
reduced signal,,FAP specificity over PREP,C[C@H](O)[C@@H](NC(=O)[C@@H](N)CCCCNC(=O)c1ccccc1/N=N/c1ccc(N(C)C)cc1)C(=O)N1CCC[C@H]1C(=O)N[C@@H](CO)C(=O)N[C@@H](CCCCNC(=O)c1ccc2c(c1)C(=O)OC21c2ccc(O)cc2Oc2cc(O)ccc21)C(=O)NCCOCCOCC(=O)N[C@H](CCCCN)C(=O)NCCOCCOCC(=O)N[C@H](CCCCN)C(=O)NCCOCCOCC(=O)N[C@H](CCCCN)C(N)=O [FAP2DD-Thr] (H-K(MethylRed)[dT]PSK(5FAM)[AEEA][dK][AEEA][dK][AEEA][dK]-NH2),
loss of FAP activity,,,CN(C)c1ccc(/N=N/c2ccccc2C(=O)NCCCC[C@H](N)C(=O)N[C@H](Cc2ccc(O)cc2)C(=O)N2CCC[C@H]2C(=O)N[C@@H](CO)C(=O)N[C@@H](CCCCNC(=O)c2ccc3c(c2)C(=O)OC32c3ccc(O)cc3Oc3cc(O)ccc32)C(=O)NCCOCCOCC(=O)N[C@H](CCCCN)C(=O)NCCOCCOCC(=O)N[C@H](CCCCN)C(=O)NCCOCCOCC(=O)N[C@H](CCCCN)C(N)=O)cc1 [FAP2ED-Tyr] (H-K(MethylRed)[dY]PSK(5FAM)[AEEA][dK][AEEA][dK][AEEA][dK]-NH2),
reduced signal,,FAP specificity over PREP,CN(C)c1ccc(/N=N/c2ccccc2C(=O)NCCCC[C@H](N)C(=O)NCCC(=O)N2CCC[C@H]2C(=O)N[C@@H](CO)C(=O)N[C@@H](CCCCNC(=O)c2ccc3c(c2)C(=O)OC32c3ccc(O)cc3Oc3cc(O)ccc32)C(=O)NCCOCCOCC(=O)N[C@H](CCCCN)C(=O)NCCOCCOCC(=O)N[C@H](CCCCN)C(=O)NCCOCCOCC(=O)N[C@H](CCCCN)C(N)=O)cc1 [FAP2Fβ-Ala] (H-K(MethylRed)[βAla]PSK(5FAM)[AEEA][dK][AEEA][dK][AEEA][dK]-NH2),
,no rhPREP cleavage,demonstrated FAP specificity,"CC(C)[C@H](NC(=O)[C@@H](N)CCCCNC(=O)c1ccccc1/N=N/c1ccc(N(C)C)cc1)C(=O)N[C@H](CO)C(=O)N1CCC[C@H]1C(=O)N[C@@H](CO)C(=O)N[C@@H](CCC(N)=O)C(=O)NCC(=O)N[C@@H](CCCCNC(=O)c1ccc2c(c1)C(=O)OC21c2ccc(O)cc2Oc2cc(O)ccc21)C(=O)NCCOCCOCC(=O)N[C@H](CCCCN)C(=O)NCCOCCOCC(=O)N[C@H](CCCCN)C(=O)NCCOCCOCC(=O)N[C@H](CCCCN)C(N)=O [FAP-sP, reference compound] (H-K(MethylRed)V[dS]PSQGK(5FAM)[AEEA][dK][AEEA][dK][AEEA][dK]-NH2)","Cleavage by DPP-IV (exopeptidase activity, fluorescence signal) (rhDPPIV): no cleavage"
,,,"CC(C)[C@H](N)C(=O)N1CCC[C@H]1B(O)O [Talabostat, Val-boroPro, reference compound]",Inhibition of FAP3 intensity and lifetime change in NSCLC tissue [1]: abrogated; IC50 (DPP-IV): 4 nM
,,,KGPGPNQC [ANPFAP],Signal in FAP expressing tumours (FAP expressing tumours): higher signal
